In article PMC6032411, “Synthesis and Biological Evaluation of Zeise’s Salt Derivatives with Acetylsalicylic Acid Substructure” (International Journal of Molecular Sciences, 2018):
Each block holds one compound with its values, some of them ahead of it.

Key:
[1] = tested on: HT-29 colon carcinoma cells; assay: Antiproliferative effects, crystal violet cell biomass assay, HT-29; assay type: cell-based; details: for IC50: 72 h incubation, crystal violet
Method: (§1) The growth inhibitory effects of ASA, Zeise’s salt as well as the thereof derived complexes 1a–4a were investigated in vitro against the HT-29 and the MCF-7 cell lines. Thereby, an already published crystal violet assay was employed, in which the cell biomass reduced by the substances was determined as parameter. Cisplatin was applied as positive control.
(§2) The HT-29 colon carcinoma and the MCF-7 breast cancer cell lines were obtained from the cell line service (CLS, Eppelheim, Germany). The HT-29 and the MCF-7 cells were cultivated as a monolayer in Dulbecco’s Modified Eagle Medium (DMEM) containing glucose (4.5 g/L) and lacking phenol red (GE Healthcare, Little Chalfont, UK), supplemented with fetal calf serum (FCS; 10%; Biochrom) and L-glutamine (584 mg/L; GE Healthcare). The cells were cultured in a humidified atmosphere (5% CO2/95% air) at 37 °C and were passaged regularly twice a week. The cell lines were characterized by typing short tandem repeats and routinely monitored for mycoplasma infection.
(§3) The effects of the newly synthesized substances on the cell biomass were determined in vitro while employing a crystal violet assay. The testing was performed following a modified protocol, as previously published. Exponentially growing HT-29 and MCF-7 cells were seeded in 96-well tissue culture plates with a density of 3 × 10^3 and 2 × 10^3 cells, respectively, in 100 µL of completed DMEM per well in quadruples. The plates were kept in a humidified atmosphere (5% CO2/95% air) at 37 °C for 24 h prior to the addition of completed medium containing the vehicle DMF, the positive control Cisplatin, and the compounds to be tested, respectively. After 72 h of incubation, the medium was removed, the cells were washed with PBS and fixed using a solution of glutaraldehyde in PBS (1%, v/v). The cell biomass was examined by staining the chromatin of adherent cells with crystal violet, extraction of the stain with ethanol (70%, v/v) and following measurement of absorbance (λ = 590 nm). The cell viability is given as percentage of cell viability of the vehicle treated control, which was set to 100%. The IC50 values represent the mean ± standard error of mean of ≥2 independent experiments and they were calculated with Prism 7.0 (GraphPad, San Diego, CA, USA) using nonlinear regression and decadal logarithm of the inhibitor versus variable slope equation. The top constraint was set to 100%.

[2] = tested on: MCF-7 breast cancer cells; assay: Antiproliferative effects, crystal violet cell biomass assay, MCF-7; assay type: cell-based; details: for IC50: 72 h incubation, crystal violet
Method: as §1, §2, §3

[3] = target: T1, ovine COX-1 (Ovis aries, UniProt P05979); assay: COX-1 isoenzyme inhibition (COX Inhibitor Screening Assay, enzyme immunoassay); assay type: biochemical; details: 10 µM, incubation 10 min, isolated enzyme
T1 construct: purchased Cayman Chemicals
T1 sequence (P05979 25-600): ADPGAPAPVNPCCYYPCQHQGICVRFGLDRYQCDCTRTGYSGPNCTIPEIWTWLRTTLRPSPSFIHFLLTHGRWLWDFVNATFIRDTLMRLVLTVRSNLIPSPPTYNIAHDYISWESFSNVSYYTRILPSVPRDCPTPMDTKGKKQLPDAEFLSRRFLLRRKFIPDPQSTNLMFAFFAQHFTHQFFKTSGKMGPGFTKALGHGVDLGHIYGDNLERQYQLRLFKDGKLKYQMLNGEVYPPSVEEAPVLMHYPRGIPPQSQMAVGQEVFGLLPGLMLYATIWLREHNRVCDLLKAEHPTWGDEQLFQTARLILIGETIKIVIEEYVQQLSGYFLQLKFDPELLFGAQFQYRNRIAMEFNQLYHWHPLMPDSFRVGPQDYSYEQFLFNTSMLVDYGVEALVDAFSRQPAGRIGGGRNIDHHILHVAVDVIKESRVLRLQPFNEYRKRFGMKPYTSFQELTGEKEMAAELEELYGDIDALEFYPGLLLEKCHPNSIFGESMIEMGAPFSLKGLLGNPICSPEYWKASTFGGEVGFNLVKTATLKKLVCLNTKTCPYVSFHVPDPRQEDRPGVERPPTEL
Method: (§4) The impact of the compounds (10 µM) to inhibit the isoenzymes COX-1 and COX-2, respectively, was investigated (Figure 5).
(§5) The inhibition of both isolated isoenzymes, ovine COX-1 and ovine COX-2, respectively, were investigated at a concentration of 10 µM of the respective substances while employing an enzyme immunoassay (COX Inhibitor Screening Assay, Cayman Chemicals, Ann Arbor, MI, USA). The conduction of the assay was performed following the manufacturer’s protocol. Thereby, the isoenzymes were incubated with the particular compounds for exactly 10 min. The values express the mean of duplicate determinations and they represent the mean ± standard deviation of ≥2 independent experiments. The untreated control was set to 0% inhibition.
(§6) Figure 5 Inhibition of isolated ovine COX-1 and COX-2. Values are given as % COX inhibition calculated from initial activity of vehicle treated enzyme and represent the mean ± standard deviation of ≥2 independent experiments.

[4] = target: T2, ovine COX-2 (Ovis aries, UniProt P79208); assay: COX-2 isoenzyme inhibition (COX Inhibitor Screening Assay, enzyme immunoassay); assay type: biochemical; details: for COX-2 inhibition: 10 µM, incubation 10 min, isolated enzyme
T2 construct: purchased Cayman Chemicals
T2 sequence (P79208 17-603): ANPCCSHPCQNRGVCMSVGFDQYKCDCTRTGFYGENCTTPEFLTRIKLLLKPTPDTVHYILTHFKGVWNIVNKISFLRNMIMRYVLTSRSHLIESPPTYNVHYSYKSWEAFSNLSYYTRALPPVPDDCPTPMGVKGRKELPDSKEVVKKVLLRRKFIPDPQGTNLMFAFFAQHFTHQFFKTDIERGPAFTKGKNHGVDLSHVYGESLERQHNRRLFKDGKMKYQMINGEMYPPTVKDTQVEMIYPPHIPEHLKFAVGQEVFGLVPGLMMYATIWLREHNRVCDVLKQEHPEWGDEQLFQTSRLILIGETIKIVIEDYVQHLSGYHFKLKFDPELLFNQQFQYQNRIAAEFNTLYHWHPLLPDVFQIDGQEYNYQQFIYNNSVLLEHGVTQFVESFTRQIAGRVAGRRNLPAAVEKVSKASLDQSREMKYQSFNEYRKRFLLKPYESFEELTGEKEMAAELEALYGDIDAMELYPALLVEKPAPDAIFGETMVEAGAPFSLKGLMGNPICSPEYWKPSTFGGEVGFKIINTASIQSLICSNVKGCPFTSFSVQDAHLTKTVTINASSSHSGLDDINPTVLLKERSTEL
Method: as §4, §5, §6

[5] = Evaluation of stability by capillary electrophoresis; assay type: physicochemical
Text: Capillary electrophoresis (CE) was employed in order to determine the stability of the anionic platinum(II) complexes in aqueous media. Therefore, a method was established that allowed the detection of the respective complex and possible degradation products in a short period of time (for further information on the setup see Section 4). Methanol was chosen as a non-coordinating co-solvent for the sample solutions (final amount of methanol: 50%) in order to guarantee the solubility of decomposition products. In contrast to HPLC analysis, it was possible to separate the platinum complex (tm = 6.3 min) from the free ligand (tm = 4.4 min) using a 50 mM sodium tetraborate solution (pH = 9.3) as the background electrolyte (temperature: 25 °C; UV-detection: 230 nm; capillary: fused silica 64.5 cm × 75 µm, effective length 56 cm; 20 kV). […] The reactions followed pseudo-first order kinetics (R^2 ≥ 0.99) under the experimental conditions that were implemented.
A 50 mM sodium tetraborate solution with a pH of 9.3 (adjusted with 1 M NaOH solution) was used as the background electrolyte (BGE). Prior to the first utilization new capillaries were washed with 1 M NaOH solution (45 min), water (45 min) and BGE (45 min). Samples were injected into the capillary via hydrodynamic mode (50 mbar for 2 s). The capillary was thermostated at 25 °C, whereas the autosampler was kept at 37 °C by an external water bath. The separation voltage was 20 kV and the detection wavelength was set to 230 nm. The required run time was 10 min. The capillary was flushed consecutively with 0.1 M NaOH solution (3 min), water (3 min), and BGE (5 min) before each measurement. For the purpose of stability testing, the complexes were dissolved in methanol and diluted 1:1 (v/v) with water, 1.8% aqueous NaCl solution, or double-concentrated PBS to a final concentration of 1 mM. Every experiment was performed in triplicate. The half-lives are presented as mean ± standard deviation. All of the samples, buffers, and washing solutions were membrane filtered (0.22 µm porosity) and degassed by ultrasonication prior to usage.

[6] = parameters: method as in doi:10.1002/zaac.19603050315; details: degrades in a redox reaction building acetaldehyde and Pt(0); cited from earlier work
[7] = Stability in other media (aqueous conditions, cell culture medium, DMSO); assay type: physicochemical; details: degraded immediately after addition
[8] = methanol/water 1:1, 1 mM, 37 °C
[9] = up to a concentration of 100 µM

Compound: N.N.[Cl][Pt][Cl] [Cisplatin, reference compound]
- IC50 [1]: 2.6 ± 0.1 µM
- IC50 [2]: 3.7 ± 0.3 µM

Compound: Potassium {trichlorido[η^2-(hex-5-en-1-yl)-2-acetoxybenzoate]platinate(II)} [Compound 4a]
- COX-1 inhibition [3]: 96.6%
- COX-2 inhibition [4]: 33.0%
- half-live (τ1/2) [5, 8]: 55.4 ± 4.0 h
- IC50 [1]: 41.4 ± 0.3 µM
- IC50 [2]: 43.7 ± 5.7 µM

Compound: Potassium {trichlorido[η^2-(pent-4-en-1-yl)-2-acetoxybenzoate]platinate(II)} [Compound 3a]
- COX-1 inhibition [3]: 93.8%
- COX-2 inhibition [4]: 15.3%
- half-live (τ1/2) [5, 8]: 73.5 ± 4.7 h
- IC50 [1]: 44.2 ± 3.4 µM
- IC50 [2]: 37.4 ± 2.5 µM

Compound: CC(=O)Oc1ccccc1C(=O)O [ASA, acetylsalicylic acid]
- COX-1 inhibition [3]: 29.2%
- inhibition at 10 µM ([4]; read-out: COX-2 inhibition): 1%
- IC50 ([1]; Homo sapiens, HT-29): ≥ 50 µM
- antiproliferative activity against HT-29 [1, 9]: inactive
- IC50 ([2]; Homo sapiens, MCF7): ≥ 50 µM
- antiproliferative activity against MCF-7 [2, 9]: inactive

Compound: Potassium {trichlorido[η^2-(prop-2-en-1-yl)-2-acetoxybenzoate]platinate(II)} [Compound 1a]
- COX-1 inhibition [3]: 67.3%
- COX-2 inhibition [4]: 17.4%
- stability in methanol ([5]; methanol, 48 h): stable
- half-live (τ1/2) [5, 8]: 0.595 ± 0.01 h
- IC50 [1]: 49.7 ± 1.8 µM
- IC50 [2]: ≥ 50 µM

Compound: Potassium {trichlorido[η^2-(but-3-en-1-yl)-2-acetoxybenzoate]platinate(II)} [Compound 2a]
- COX-1 inhibition [3]: 70.0%
- COX-2 inhibition [4]: 28.7%
- recovery of the intact complex ([5]; 154 mM Cl− in 50% methanol/water, after 168 h): 80.3 ± 3.2%
- half-live (τ1/2) ([5]; PBS pH 7.4 in methanol/water, degraded to Pt-Butene-SA): 7.95 ± 0.09 h
- half-live (τ1/2) [5, 8]: 69.6 ± 3.0 h
- IC50 [1]: 31.4 ± 0.4 µM
- IC50 [2]: 30.1 ± 1.5 µM

- COX-1 inhibition [3]: 83.8%
- COX-2 inhibition [4]: 11.3%
- IC50 [1]: ≥ 50 µM
- IC50 [2]: ≥ 50 µM
- stability in cell culture medium [7]: not stable
Compound: C=C.[Cl-].[Cl-].[Cl-].[K+].[Pt+2] [Zeise’s salt, potassium trichlorido[ethylene]platinate(II)]
- stability under aqueous conditions [6]: very unstable
